Measurements published in patent US9757378B2, “Methods to modulate acute myeloid leukemia stem/progenitor cell expansion and/or differentiation” (UNIVERSITE DE MONTREAL, priority 2013, dated 2017).

Tests used:
[1] = test system: primary human AML cells; assay: Secondary screen: dose response, five serial dilutions (CD34/CD15 flow cytometry); type: cell-based; parameters: key to 2ndary screen criteria fulfilled: 0 = no; 1 = yes
Method: In the primary screen cells were plated in transparent 384-wellplates (Greiner, 781182) at a density of 5,000 cells in 50 μl final volume per well. Compounds were tested at 2 μM (commercial libraries) or 1 μg/ml (Medicinal Chemistry Facility, IRIC). […] For validation experiments AML cells were grown in 384-well plates with 3-8 replicates per condition.
Flow cytometry was performed on an LSR™ II cytometer equipped with an HTS-device (BD Bioscience, Primary and Secondary screens and in vitro validation experiments) or on a BD Canto™ II cytometer (BD Bioscience, Xenotransplantation and CellTrace Violet™ experiments). Cells were stained for 30 minutes at 4° C. protected from light if not otherwise indicated (CellTrace Violet™ staining). The following flow cytometry-antibodies were used: CD45 Pacific Blue (BioLegend 304029), CD33 PE (BD Bioscience 555450), CD34 APC (BD Bioscience 555824), CD3 FITC (BD Bioscience 555332), CD19 PE-Cy7 (BD Bioscience 557835), CD15 PE (BD Bioscience 555401), and anti-mouse CD45.1 APC-efluor 730 (eBioscience 47-0453-82). CD34 intensities in flow cytometry plots were set at high levels on day 0 to allow tracing of non-predictable decreases of intensities during 7 days in culture.

[2] = test system: AhR target genes CYP1A1, CYP1B1 and AHRR; assay: AhR target gene expression by q-RT-PCR in AML cells; type: cell-based, human; settings: 24 h incubation, compared to DMSO, GAPDH control
Description: RNA was isolated from primary AML samples using Trizol® reagent according to the manufacturer's instructions (Invitrogen/Life Technologies) and reverse transcribed into cDNA using MMLV reverse transcriptase and random primers. 2× Fast Master Mix® containing primers described below and probes from the Universal Probe Library® (Roche Diagnostics) were used for q-RT-PCR reactions which were amplified in 2-3 technical replicates on an ABI 7900HT Fast Real-Time® PCR System (Applied Biosystems/Life Technologies). Analysis was done with SDS 2.2.2 software (Applied Biosystems/Life Technologies) using the comparative delta CT method with GAPDH as reference gene. The following primers and probes were used: GAPDH: 5′-[…]-3′ (forward, SEQ ID NO:7), 5′-[…]-3′ (reverse, SEQ ID NO:8), probe 60, CYP1A1: 5′-[…]-3′ (forward, SEQ ID NO:9), 5′-[…]-3′ (reverse, SEQ ID NO:10), probe 59, CYP1B1: 5′-[…]-3′ (forward, SEQ ID NO:11), 5′-[…]-3′ (reverse, SEQ ID NO:12), probe 20, AHRR: 5′-[…]-3′ (forward, SEQ ID NO:13), 5′-[…]-3′ (reverse, SEQ ID NO:14), probe 72, AHR: 5′-[…]-3′ (forward, SEQ ID NO:15), 5′-[…]-3′ (reverse, SEQ ID NO:16), probe 33.

[3] = test system: primary human AML specimens; assay: Validation: 7-day serum-free culture of diverse AML specimens (CD34+CD15− cells); type: cell-based
Method: The following flow cytometry-antibodies were used: […] Statistical analyses of all in vitro experiments were done using Graphpad Prism v 6.01. […] Normalized CD34^+CD15^- percentages (td7/t0) were analyzed by Wilcoxon matched pairs signed rank test. Bars and error bars represent means and standard deviations (SD), or standard errors of the mean (SEM), as specified. Extreme limiting dilution analysis software (Hu, […]: extreme limiting dilution analysis for comparing depleted and enriched populations in stem cell and other assays. Journal of immunological methods 347, 70-78 (2009); http://bioinf.wehi.edu.au/software/elda/) was used to estimate LSC frequencies with 95% confidence intervals. In cases where all mice were positive or negative, one-sided confidence intervals were calculated. Differences in LSC frequencies between culture conditions were analyzed by Chi-square test.

[4] = test system: AML cells (04H112); assay: Cell proliferation assay (CellTrace Violet); type: cell-based, human; settings: 4-day culture; SR1 500 nM, UM729 1 μM
Method: CellTrace™ Violet (Invitrogen/Life Technologies C34557) was added at a final concentration of 3 μM to cell suspensions (10^7 cells/ml) containing SR1 (500 nM), UM729 (1 μM), both compounds, or vehicle DMSO (0.1%). CellTrace™ Violet labeled cells were stained with surface antibodies against human CD3, CD19, CD34, and CD33 on day 0, day 2, and day 4 prior to analysis on a BD Canto™ II flow cytometer. Data were analyzed using FlowJo™ version 7.6.5.

[5] = test system: leukemia stem cells (LSC) of primary human AML samples; assay: Xenotransplantation of 4-day cultured AML cells into NSG mice (engraftment, LSC frequency); type: in vivo; settings: 4-day culture, NSG mice, most samples
Description: NOD.Cg-Prkdc^scid II2rg^tm1Wjl/SzJ (NSG) mice were purchased from Jackson Laboratory® (Bar Harbor, Me.) and bred in a pathogen-free animal facility. All AML samples were transplanted via the tail vein into 8-12 week old sublethally irradiated (250 cGy, ^137Cs-gamma source) NSG mice. […] On day 4, equivalents of the three highest to cell doses from each of the 3-4 flasks per condition were transplanted. The technician injecting fresh and cultured cells in NSG mice was not informed about the experimental conditions. […] On average 150,000 gated events were acquired. Mice were considered positive if human cells represented >1% of the bone marrow cell population. Mice were excluded only in case of obvious non-leukemia related death (e.g. first two weeks after irradiation). To discriminate between engraftment of leukemic and normal cells present in unsorted patient samples only recipients with proportions of CD45^+CD33^+ or CD45^+CD34^+ cells higher than proportions of CD19^+CD33^- or CD3^+ were considered to harbor cells of leukemic origin. Statistical analyses of all in vitro experiments were done using Graphpad Prism v 6.01. […] Normalized CD34^+CD15^- percentages (td7/t0) were analyzed by Wilcoxon matched pairs signed rank test. Bars and error bars represent means and standard deviations (SD), or standard errors of the mean (SEM), as specified. Extreme limiting dilution analysis software (Hu, […]: extreme limiting dilution analysis for comparing depleted and enriched populations in stem cell and other assays. Journal of immunological methods 347, 70-78 (2009); http://bioinf.wehi.edu.au/software/elda/) was used to estimate LSC frequencies with 95% confidence intervals. In cases where all mice were positive or negative, one-sided confidence intervals were calculated. Differences in LSC frequencies between culture conditions were analyzed by Chi-square test.

[6] = test system: AML 05H163 cells; assay: 5-day culture of AML 05H163 with AhR suppressors plus UM729; type: cell-based, human; settings: 05H163, 5 days
Method: AML cells were thawed in 37° C. water bath and 1:10 diluted in prewarmed Iscove's modified Dulbecco's medium (IMDM) containing 20% FBS and DNase 100 μg/ml. Cells were cultured in IMDM supplemented with 15% BIT (bovine serum albumin, insulin, transferrin, Stem Cell Technologies #09500), SCF 100 ng/ml (Shenandoah #100-04), FLT3L 50 ng/ml (Shenandoah #100-21), II-3 20 ng/ml (Shenandoah #100-80), G-CSF 20 ng/ml (Shenandoah #100-72), β-mercaptoethanol (10^−4M), gentamicin (50 μg/ml) and ciprofloxacin (10 μg/ml). […] When compounds were added to the culture medium, final DMSO concentrations were 0.1% in all in vitro experiments and 0.01% when cultured cells were transplanted into NSG-mice.
Flow cytometry was performed on an LSR™ II cytometer equipped with an HTS-device (BD Bioscience, Primary and Secondary screens and in vitro validation experiments) or on a BD Canto™ II cytometer (BD Bioscience, Xenotransplantation and CellTrace Violet™ experiments). Cells were stained for 30 minutes at 4° C. protected from light if not otherwise indicated (CellTrace Violet™ staining). The following flow cytometry-antibodies were used: CD45 Pacific Blue (BioLegend 304029), CD33 PE (BD Bioscience 555450), CD34 APC (BD Bioscience 555824), CD3 FITC (BD Bioscience 555332), CD19 PE-Cy7 (BD Bioscience 557835), CD15 PE (BD Bioscience 555401), and anti-mouse CD45.1 APC-efluor 730 (eBioscience 47-0453-82). […]

[7] = test system: AML cells; assay: Morphology analysis (cytospins, Wright stain); type: cell-based, human; settings: 4-day culture; SR1 500 nM, UM729 1 μM
Method: 2-4×10^5 fresh and cultured cells were centrifuged onto cytospin slides, stained with Wright stain solution for 10 minutes and washed with PBS and water prior to analysis. Pictures of cytospins were taken with a Canon® EOS 5D camera connected to a Zeiss® Axio Imager microscope (40× objective).

[8] = test system: primary human AML cells; assay: Primary screen: differentiation of primary human AML cells in vitro (CD34/CD15, HTS flow cytometry)
Method: AML cells were thawed in 37° C. water bath and 1:10 diluted in prewarmed Iscove's modified Dulbecco's medium (IMDM) containing 20% FBS and DNase 100 μg/ml. […] When compounds were added to the culture medium, final DMSO concentrations were 0.1% in all in vitro experiments and 0.01% when cultured cells were transplanted into NSG-mice.
Compounds were tested at 2 μM (commercial libraries) or 1 μg/ml (Medicinal Chemistry Facility, IRIC). […] For validation experiments AML cells were grown in 384-well plates with 3-8 replicates per condition.
Flow cytometry was performed on an LSR™ II cytometer equipped with an HTS-device (BD Bioscience, Primary and Secondary screens and in vitro validation experiments) or on a BD Canto™ II cytometer (BD Bioscience, Xenotransplantation and CellTrace Violet™ experiments). Cells were stained for 30 minutes at 4° C. protected from light if not otherwise indicated (CellTrace Violet™ staining). […] CD34 intensities in flow cytometry plots were set at high levels on day 0 to allow tracing of non-predictable decreases of intensities during 7 days in culture.

[9] = at optimal concentration, compared to DMSO

SMILES: COC(=O)c1ccc2c(c1)[nH]c1ncnc(NCCCN3CCCCC3)c12 [UM0125729, methyl 4-((3-(piperidin-1-yl)propyl)amino)-9H-pyrimido[4,5-b]indole-7-carboxylate]
- % increase CD34+CD15− (%) 2ndary screen [1, 9]: 205.07%
- % increase CD34+CD15− (cell counts) 2ndary screen [1, 9]: 206.53%
- 2ndary screen criteria fulfilled ([1]; ≧50% increase CD34+CD15− (%) and cell counts and ≧50% gated cells in at least one dose): 1
- effect on AhR target genes (CYP1A1, CYP1B1, AHRR) expression [2]: no effect
- effect of adding UM729 to AhR suppressor-supplemented cultures ([3]; 7-day culture, CD34+CD15− percentage): enhanced the effect of SR1 in all specimens
- preventing AML cell differentiation in vitro, compound alone ([3]; 17 AML specimens, 7-day culture, UM729 1 μM): most samples responded
- CD34+CD38− and CD34+CD38+ compartments, SR1 and UM729 compared to DMSO ([3]; 7 days in culture): benefitted
- distribution of cell generations / number of early cell divisions [4]: did not affect
- effect of adding UM729 to SR1- (or C05-) supplemented cultures on engraftment [5]: increased engraftment levels, but not LSC frequency
- absolute numbers of CD34+CD15− cells, UM729 added compared to AhR suppressors alone [6]: higher
- typical morphologic signs of differentiation on cytospins [7]: rarely seen
- percent gated cells (viability) ([8]; 2 μM (commercial libraries) or 1 μg/ml (IRIC)): 78.40%
- % increase CD34+ (cell counts) ([8]; compared to DMSO): 26.44%
- % increase CD34+CD15− (cell counts) ([8]; compared to DMSO): 63.00%
- % increase CD34+CD15− (%) ([8]; compared to DMSO ((compound − DMSO)/DMSO*100)): 47.24%
